One experiment addresses T1, HiBit-BRM fusion protein (Homo sapiens, UniProt P51531).
T1 construct: expressed in transfected cells
Briefly: HiBiT-BRM cell-based degradation assay (Nano-Glo HiBiT Lytic Detection). The conditions noted are these: stable HeLa cell line expressing HiBiT-BRM, 24 h incubation; for BRM HiBit Degradation Maximum (%): top dose 30 μM; for DC50: read-out: BRM HiBit Degradation IC50. In a few lines:
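HeLa cells stably expressing HiBiT-BRM were dosed with compounds (10-point 3-fold dilutions, 30 μM final top dose, duplicate) for 24 h. HiBiT signal was read by lytic LgBiT complementation luminescence. Percent degradation was normalised to DMSO (high control) and 2 μM of a reference BRM/BRG1 degrader (low control).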
On the technique in general: The HiBiT peptide binds its large partner to form an active luciferase.

The target in experiment [1] is T2, HiBit-BRG1 fusion protein (Homo sapiens, UniProt P51532).
T2 construct: expressed in transfected cells
Briefly: HiBiT-BRG1 cell-based degradation assay (Nano-Glo HiBiT Lytic Detection). The note with it: stable HeLa cell line expressing HiBit-BRG1 and LgBit, 24 h incubation; for Dmax: top dose 30 μM, read-out: BRG1 HiBit Degradation Maximum (%); for DC50: read-out: BRMG1 HiBit Degradation IC50. In a few lines:
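HeLa cells stably expressing HiBiT-BRG1 and LgBiT treated 24 h with 10-point 3-fold dilutions (top 30 μM, duplicate). Luminescence read after Nano-Glo HiBiT lytic reagent; % degradation relative to DMSO (high control) and 2 μM reference BRM/BRG1 degrader (low control).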

Experimental findings from patent US20240376121A1, “COMPOUNDS AND USES THEREOF” (Foghorn Therapeutics Inc., priority 2021, published 2024) are described below.

T1 sequence (P51531 whole entry, the tested form may be a part): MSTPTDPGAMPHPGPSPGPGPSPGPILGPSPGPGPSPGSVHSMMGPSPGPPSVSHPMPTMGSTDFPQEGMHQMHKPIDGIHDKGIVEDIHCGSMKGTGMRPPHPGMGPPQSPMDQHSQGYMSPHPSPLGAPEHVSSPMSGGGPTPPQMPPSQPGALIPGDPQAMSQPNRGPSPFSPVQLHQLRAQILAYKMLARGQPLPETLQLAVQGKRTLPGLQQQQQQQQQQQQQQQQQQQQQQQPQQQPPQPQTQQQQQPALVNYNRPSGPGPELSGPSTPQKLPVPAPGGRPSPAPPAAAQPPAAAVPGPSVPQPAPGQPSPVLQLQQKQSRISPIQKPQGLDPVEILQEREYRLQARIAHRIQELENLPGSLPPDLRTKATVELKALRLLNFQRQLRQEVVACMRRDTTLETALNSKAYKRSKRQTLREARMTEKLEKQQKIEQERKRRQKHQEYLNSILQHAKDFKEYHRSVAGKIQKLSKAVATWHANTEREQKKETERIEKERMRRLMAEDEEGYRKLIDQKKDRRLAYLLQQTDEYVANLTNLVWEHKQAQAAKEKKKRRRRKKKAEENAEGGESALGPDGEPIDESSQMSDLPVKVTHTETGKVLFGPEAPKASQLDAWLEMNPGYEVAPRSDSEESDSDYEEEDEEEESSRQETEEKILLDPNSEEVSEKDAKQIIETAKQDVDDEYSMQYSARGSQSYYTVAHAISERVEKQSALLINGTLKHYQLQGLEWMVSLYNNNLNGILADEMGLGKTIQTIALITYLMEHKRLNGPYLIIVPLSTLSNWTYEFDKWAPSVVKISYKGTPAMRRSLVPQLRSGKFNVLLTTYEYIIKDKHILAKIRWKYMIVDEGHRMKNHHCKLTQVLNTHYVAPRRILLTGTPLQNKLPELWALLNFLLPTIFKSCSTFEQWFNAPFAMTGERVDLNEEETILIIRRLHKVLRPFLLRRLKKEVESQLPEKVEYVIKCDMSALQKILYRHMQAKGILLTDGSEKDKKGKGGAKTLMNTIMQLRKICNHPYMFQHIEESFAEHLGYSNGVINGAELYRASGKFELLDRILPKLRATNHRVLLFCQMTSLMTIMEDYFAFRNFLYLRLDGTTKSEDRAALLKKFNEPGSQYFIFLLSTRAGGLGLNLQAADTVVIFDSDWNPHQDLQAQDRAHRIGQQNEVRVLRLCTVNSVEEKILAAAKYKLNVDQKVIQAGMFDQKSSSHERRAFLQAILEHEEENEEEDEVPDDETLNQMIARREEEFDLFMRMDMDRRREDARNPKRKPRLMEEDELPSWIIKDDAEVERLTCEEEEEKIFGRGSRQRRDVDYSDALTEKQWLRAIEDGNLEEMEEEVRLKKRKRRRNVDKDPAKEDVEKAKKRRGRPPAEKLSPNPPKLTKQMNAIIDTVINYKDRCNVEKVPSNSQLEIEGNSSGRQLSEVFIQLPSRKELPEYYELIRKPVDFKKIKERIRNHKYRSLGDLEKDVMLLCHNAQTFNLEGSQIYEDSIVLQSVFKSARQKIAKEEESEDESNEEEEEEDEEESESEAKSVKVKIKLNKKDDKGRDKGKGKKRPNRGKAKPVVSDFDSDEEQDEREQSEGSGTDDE
T2 sequence (P51532 whole entry, the tested form may be a part): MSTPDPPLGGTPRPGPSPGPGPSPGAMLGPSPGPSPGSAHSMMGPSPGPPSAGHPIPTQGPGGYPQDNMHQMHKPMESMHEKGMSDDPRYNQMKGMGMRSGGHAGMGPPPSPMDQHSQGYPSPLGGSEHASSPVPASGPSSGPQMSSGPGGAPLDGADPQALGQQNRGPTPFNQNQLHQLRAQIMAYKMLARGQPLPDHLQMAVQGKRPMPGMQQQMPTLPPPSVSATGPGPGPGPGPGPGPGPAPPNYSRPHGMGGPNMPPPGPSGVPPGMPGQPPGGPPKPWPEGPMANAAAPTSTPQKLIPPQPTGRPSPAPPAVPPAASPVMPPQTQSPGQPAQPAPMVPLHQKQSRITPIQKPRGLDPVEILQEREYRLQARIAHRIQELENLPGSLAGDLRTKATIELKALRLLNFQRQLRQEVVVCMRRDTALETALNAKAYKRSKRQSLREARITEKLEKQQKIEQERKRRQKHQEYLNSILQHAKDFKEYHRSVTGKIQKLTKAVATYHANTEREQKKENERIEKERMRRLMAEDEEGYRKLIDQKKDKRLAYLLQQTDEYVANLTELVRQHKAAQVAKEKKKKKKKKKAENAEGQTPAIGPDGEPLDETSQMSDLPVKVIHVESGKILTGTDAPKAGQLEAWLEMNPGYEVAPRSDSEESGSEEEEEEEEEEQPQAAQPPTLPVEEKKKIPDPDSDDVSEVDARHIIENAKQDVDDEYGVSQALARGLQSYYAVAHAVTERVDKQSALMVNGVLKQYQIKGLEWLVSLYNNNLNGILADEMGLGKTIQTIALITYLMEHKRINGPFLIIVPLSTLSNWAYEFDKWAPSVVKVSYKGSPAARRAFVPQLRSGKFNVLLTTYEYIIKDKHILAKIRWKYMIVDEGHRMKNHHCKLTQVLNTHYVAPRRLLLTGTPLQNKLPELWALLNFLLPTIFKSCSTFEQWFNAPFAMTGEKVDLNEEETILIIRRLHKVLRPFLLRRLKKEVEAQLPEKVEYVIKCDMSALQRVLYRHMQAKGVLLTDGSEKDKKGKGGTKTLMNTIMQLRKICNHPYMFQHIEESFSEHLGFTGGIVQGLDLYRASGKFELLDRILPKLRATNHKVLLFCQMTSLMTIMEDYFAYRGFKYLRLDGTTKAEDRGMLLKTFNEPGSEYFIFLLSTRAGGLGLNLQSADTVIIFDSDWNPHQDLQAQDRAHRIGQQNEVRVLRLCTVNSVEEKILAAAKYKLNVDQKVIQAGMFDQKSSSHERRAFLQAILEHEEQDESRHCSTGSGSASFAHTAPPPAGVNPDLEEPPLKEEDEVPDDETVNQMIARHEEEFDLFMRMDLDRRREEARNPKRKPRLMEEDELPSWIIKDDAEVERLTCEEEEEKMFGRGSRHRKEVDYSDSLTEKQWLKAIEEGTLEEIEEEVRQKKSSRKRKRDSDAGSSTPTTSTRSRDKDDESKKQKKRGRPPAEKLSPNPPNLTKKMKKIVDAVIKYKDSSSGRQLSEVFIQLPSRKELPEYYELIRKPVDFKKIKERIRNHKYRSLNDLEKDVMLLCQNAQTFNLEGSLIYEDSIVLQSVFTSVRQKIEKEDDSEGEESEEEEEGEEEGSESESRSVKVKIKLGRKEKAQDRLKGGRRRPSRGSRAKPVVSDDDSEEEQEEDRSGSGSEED

Turning to `Cc1ncsc1-c1ccc([C@H](C)NC(=O)[C@@H]2C[C@@H](O)CN2C(=O)[C@@H](c2cc(OCCN3CC(c4cc5nnc(-c6ccccc6O)cc5s4)C3)no2)C(C)C)cc1` [Compound 9, (2S,4R)-4-hydroxy-1-((R)-2-(3-(2-(3-(3-(2-hydroxyphenyl)thieno[3,2-c]pyridazin-6-yl)azetidin-1-yl)ethoxy)isoxazol-5-yl)-3-methylbutanoyl)-N—((S)-1-(4-(4-methylthiazol-5-yl)phenyl)ethyl)pyrrolidine-2-carboxamide], on HiBit-BRM fusion protein, the “BRM HiBit Degradation Maximum (%)” value is “A (“A” indicates maximum degradation ≥ 75%)” and the DC50 was not below 0.01 µM. In addition, in experiment [1], the Dmax was less than 50% and the DC50 is not below 1 µM.
For the molecule `Cc1ncsc1-c1ccc([C@H](C)NC(=O)[C@@H]2C[C@@H](O)CN2C(=O)[C@@H](c2cc(OCCNC(=O)[C@@H]3CCc4sc5nnc(-c6ccccc6O)cc5c4C3)no2)C(C)C)cc1` [Compound 46, (R)-N-(2-((5-((R)-1-((2S,4R)-4-hydroxy-2-(((S)-1-(4-(4-methylthiazol-5-yl)phenyl)ethyl)carbamoyl)pyrrolidin-1-yl)-3-methyl-1-oxobutan-2-yl)isoxazol-3-yl)oxy)ethyl)-3-(2-hydroxyphenyl)-5,6,7,8-tetrahydrobenzo[4,5]thieno[2,3-c]pyridazine-6-carboxamide], on HiBit-BRM fusion protein, the “BRM HiBit Degradation Maximum (%)” value is listed as “C (“C” indicates maximum degradation < 50%)” and the DC50 was not below 1 µM. In addition, in experiment [1], the Dmax is less than 50% and the DC50 is not below 1 µM.
Regarding `Cc1ncsc1-c1ccc(CNC(=O)[C@@H]2C[C@@H](O)CN2C(=O)[C@@H](NC(=O)CCCCC(=O)N2CCC(c3cc4cc(-c5ccccc5O)nnc4s3)CC2)C(C)(C)C)cc1` [Compound 29], on HiBit-BRM fusion protein, the “BRM HiBit Degradation Maximum (%)” value is listed as “C (“C” indicates maximum degradation < 50%)” and the DC50 was not below 1 µM. For the same molecule, in experiment [1], the Dmax was less than 50% and the DC50 is not below 1 µM.
As for `Cc1ncsc1-c1ccc(CNC(=O)[C@H]2C[C@H](O)CN2C(=O)[C@H](NC(=O)CCN2CC(c3sc4nnc(-c5ccccc5O)cc4c3C)C2)C(C)(C)C)cc1` [Compound 17], at HiBit-BRM fusion protein, the “BRM HiBit Degradation Maximum (%)” value is “C (“C” indicates maximum degradation < 50%)” and the DC50 is not below 1 µM. For the same molecule, in experiment [1], the Dmax was less than 50% and the DC50 was not below 1 µM.
In the case of `Cc1ncsc1-c1ccc([C@H](C)NC(=O)[C@@H]2C[C@@H](O)CN2C(=O)[C@@H](c2cc(N3CCC(N4CC(c5cc6nnc(-c7ccccc7O)cc6s5)C4)CC3)no2)C(C)C)cc1` [Compound 105, (2S,4R)-4-hydroxy-1-((R)-2-(3-(4-(3-(3-(2-hydroxyphenyl)thieno[3,2-c]pyridazin-6-yl)azetidin-1-yl)piperidin-1-yl)isoxazol-5-yl)-3-methylbutanoyl)-N-((S)-1-(4-(4-methylthiazol-5-yl)phenyl)ethyl)pyrrolidine-2-carboxamide], on HiBit-BRM fusion protein, the “BRM HiBit Degradation Maximum (%)” value is reported as “A (“A” indicates maximum degradation ≥ 75%)” and the DC50 was less than 0.01 µM. In experiment [1], the Dmax was less than 50% and the DC50 was not below 1 µM.
As for `Cc1ncsc1-c1ccc(CNC(=O)[C@@H]2C[C@@H](O)CN2C(=O)[C@@H](NC(=O)C2(F)CC2)C(C)(C)C)c(OCCCN2CCC(c3sc4nnc(-c5ccccc5O)cc4c3C)CC2)c1` [Compound 81, (2S,4R)-1-((S)-2-(1-fluorocyclopropane-1-carboxamido)-3,3-dimethylbutanoyl)-4-hydroxy-N-(2-(3-(4-(3-(2-hydroxyphenyl)-5-methylthieno[2,3-c]pyridazin-6-yl)piperidin-1-yl)propoxy)-4-(4-methylthiazol-5-yl)benzyl)pyrrolidine-2-carboxamide], on HiBit-BRM fusion protein, the “BRM HiBit Degradation Maximum (%)” value was “B (“B” indicates maximum degradation ≥ 50%)” and the DC50 is not below 0.01 µM. In addition, in experiment [1], the Dmax is less than 50% and the DC50 is not below 0.01 µM.
As for `Cc1ncsc1-c1ccc([C@H](C)NC(=O)[C@@H]2C[C@@H](O)CN2C(=O)[C@@H](c2cc(OCCCN3CCC(c4sc5nnc(-c6ccccc6O)cc5c4C)CC3)no2)C(C)C)cc1` [Compound 95, (2S,4R)-4-hydroxy-1-((R)-2-(3-(3-(4-(3-(2-hydroxyphenyl)-5-methylthieno[2,3-c]pyridazin-6-yl)piperidin-1-yl)propoxy)isoxazol-5-yl)-3-methylbutanoyl)-N-((S)-1-(4-(4-methylthiazol-5-yl)phenyl)ethyl)pyrrolidine-2-carboxamide], on HiBit-BRM fusion protein, the “BRM HiBit Degradation Maximum (%)” value is “A (“A” indicates maximum degradation ≥ 75%)” and the DC50 is less than 0.01 µM. Also, in experiment [1], the Dmax was less than 50% and the DC50 is not below 1 µM.
In the case of `Cc1ncsc1-c1ccc([C@H](C)NC(=O)[C@@H]2C[C@@H](O)CN2C(=O)[C@H](c2cc(N3CCC(C(=O)N4CC(c5cc6cc(-c7ccccc7O)nnc6s5)C4)CC3)no2)C(C)C)cc1` [Compound 4, (2S,4R)-4-hydroxy-1-((S)-2-(3-(4-(3-(3-(2-hydroxyphenyl)thieno[2,3-c]pyridazin-6-yl)azetidine-1-carbonyl)piperidin-1-yl)isoxazol-5-yl)-3-methylbutanoyl)-N—((S)-1-(4-(4-methylthiazol-5-yl)phenyl)ethyl)pyrrolidine-2-carboxamide], at HiBit-BRM fusion protein, the “BRM HiBit Degradation Maximum (%)” value is recorded as “C (“C” indicates maximum degradation < 50%)” and the DC50 is not below 1 µM. Besides, in experiment [1], the Dmax is less than 50% and the DC50 was not below 1 µM.
Consider `Cc1ncsc1-c1ccc(CNC(=O)[C@@H]2C[C@@H](O)CN2C(=O)[C@@H](NC(=O)C2(F)CC2)C(C)(C)C)c(OCCN2CCC(c3sc4nnc(-c5ccccc5O)cc4c3C)CC2)c1` [Compound 83, (2S,4R)-1-((S)-2-(1-fluorocyclopropane-1-carboxamido)-3,3-dimethylbutanoyl)-4-hydroxy-N-(2-(2-(4-(3-(2-hydroxyphenyl)-5-methylthieno[2,3-c]pyridazin-6-yl)piperidin-1-yl)ethoxy)-4-(4-methylthiazol-5-yl)benzyl)pyrrolidine-2-carboxamide], for which, at HiBit-BRM fusion protein, the “BRM HiBit Degradation Maximum (%)” value is “C (“C” indicates maximum degradation < 50%)” and the DC50 was not below 1 µM. Further, in experiment [1], the Dmax was less than 50% and the DC50 is not below 1 µM.
As for `Cc1ncsc1-c1ccc([C@H](C)NC(=O)[C@@H]2C[C@@H](O)CN2C(=O)[C@@H](c2cc(OCCN3C[C@H]4C[C@@H]3C[C@@H]4c3sc4nnc(-c5ccccc5O)cc4c3C)no2)C(C)C)cc1` [Compound 58, (2S,4R)-4-hydroxy-1-[(2R)-2-(3-{2-[(1R,4S,5S)-5-[3-(2-hydroxyphenyl)-5-methylthieno[2,3-c]pyridazin-6-yl]-2-azabicyclo[2.2.1]heptan-2-yl]ethoxy}-1,2-oxazol-5-yl)-3-methylbutanoyl]-N-[(1S)-1-[4-(4-methyl-1,3-thiazol-5-yl)phenyl]ethyl]pyrrolidine-2-carboxamide], at HiBit-BRM fusion protein, the “BRM HiBit Degradation Maximum (%)” value is reported as “A (“A” indicates maximum degradation ≥ 75%)” and the DC50 was not below 0.01 µM. Also, in experiment [1], the Dmax is less than 50% and the DC50 is not below 1 µM.
For `Cc1ncsc1-c1ccc([C@H](C)NC(=O)[C@@H]2C[C@@H](O)CN2C(=O)[C@@H](c2cc(N3CCC(N4CC(c5sc6nnc(-c7ccccc7O)cc6c5C)C4)CC3)no2)C(C)C)cc1` [Compound 113, (2S,4R)-4-hydroxy-1-((R)-2-(3-(4-(3-(3-(2-hydroxyphenyl)-5-methylthieno[2,3-c]pyridazin-6-yl)azetidin-1-yl)piperidin-1-yl)isoxazol-5-yl)-3-methylbutanoyl)-N-((S)-1-(4-(4-methylthiazol-5-yl)phenyl)ethyl)pyrrolidine-2-carboxamide], on HiBit-BRM fusion protein, the “BRM HiBit Degradation Maximum (%)” value is “A (“A” indicates maximum degradation ≥ 75%)” and the DC50 was less than 0.01 µM. For the same molecule, in experiment [1], the Dmax was less than 50% and the DC50 is not below 1 µM.
Turning to `Cc1ncsc1-c1ccc([C@H](C)NC(=O)[C@@H]2C[C@@H](O)CN2C(=O)[C@@H](c2cc(OCCN3C[C@@H]4[C@H](C3)[C@H]4c3cc4cc(-c5ccccc5O)nnc4s3)no2)C(C)C)cc1` [Compound 32], on HiBit-BRM fusion protein, the “BRM HiBit Degradation Maximum (%)” value is “A (“A” indicates maximum degradation ≥ 75%)” and the DC50 is not below 0.01 µM. For the same molecule, in experiment [1], the Dmax is less than 50% and the DC50 is not below 1 µM.
Take `Cc1ncsc1-c1ccc([C@H](C)NC(=O)[C@@H]2C[C@@H](O)CN2C(=O)[C@@H](c2cc(N3CCC(C(=O)N4CC(c5cc6nnc(-c7ccccc7O)cc6s5)C4)CC3)no2)C(C)C)cc1` [Compound 99, (2S,4R)-4-hydroxy-1-((R)-2-(3-(4-(3-(3-(2-hydroxyphenyl)thieno[3,2-c]pyridazin-6-yl)azetidine-1-carbonyl)piperidin-1-yl)isoxazol-5-yl)-3-methylbutanoyl)-N-((S)-1-(4-(4-methylthiazol-5-yl)phenyl)ethyl)pyrrolidine-2-carboxamide]: on HiBit-BRM fusion protein, the “BRM HiBit Degradation Maximum (%)” value is “A (“A” indicates maximum degradation ≥ 75%)” and the DC50 was not below 0.01 µM. In experiment [1], the Dmax was less than 50% and the DC50 is not below 1 µM.
